Results as given in patent publication US10988478B1, “Pyrazolo[1,5a]pyrimidine derivatives as IRAK4 modulators” (Genentech, Inc., priority 2015, dated 2021).

These molecules were tested against human IRAK4 (Homo sapiens (Human), UniProt Q9NWZ3) (assay: IRAK4 kinase inhibition, Transcreener fluorescence polarization ADP assay). Settings: recombinant full-length His6-IRAK4; 125 uM ATP; 90 min; Ki computed using ATP Km 642 uM.
Sequence of human IRAK4 (Q9NWZ3 whole entry): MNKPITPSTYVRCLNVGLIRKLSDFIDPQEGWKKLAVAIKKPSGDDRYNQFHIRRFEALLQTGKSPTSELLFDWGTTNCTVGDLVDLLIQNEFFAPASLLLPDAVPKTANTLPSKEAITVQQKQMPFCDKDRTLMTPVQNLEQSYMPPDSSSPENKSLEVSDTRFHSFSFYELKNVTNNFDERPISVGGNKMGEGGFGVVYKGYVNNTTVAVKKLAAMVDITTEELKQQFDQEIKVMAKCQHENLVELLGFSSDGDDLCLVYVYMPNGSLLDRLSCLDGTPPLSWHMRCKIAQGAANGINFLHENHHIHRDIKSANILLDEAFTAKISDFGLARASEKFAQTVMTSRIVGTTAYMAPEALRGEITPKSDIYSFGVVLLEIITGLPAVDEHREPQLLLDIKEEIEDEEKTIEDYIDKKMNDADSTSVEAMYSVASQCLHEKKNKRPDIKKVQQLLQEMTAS
Assay type: biochemical
Method: Compounds were assayed for inhibition of human IRAK4 and IRAK1 catalytic activity using recombinant enzyme produced from insect cells. Full-length IRAK4 protein, carrying an N-terminal His6-Tag, was obtained from Life Technologies (Carlsbad, Calif., USA). The IRAK1 construct was produced internally and was comprised of IRAK1 residues Arg194 to Ser712, preceded by an NH2-terminal His6 tag and the coding sequence for glutathione-S-transferase.
In the case of `Cc1c2c(cc(NC(=O)c3cnn4cccnc34)c1N1CCOCC1)C[C@](C)(CO)O2` [Example 83, (R)—N-(2-(Hydroxymethyl)-2,7-dimethyl-6-morpholino-2,3-dihydrobenzofuran-5-yl)pyrazolo[1,5-a]pyrimidine-3-carboxamide], the Ki is reported as 62 nM.
`Cc1c2c(cc(NC(=O)c3cnn4cccnc34)c1N1CCOCC1)C[C@@](C)(CO)O2` [Example 84, (S)—N-(2-(hydroxymethyl)-2,7-dimethyl-6-morpholino-2,3-dihydrobenzofuran-5-yl)pyrazolo[1,5-a]pyrimidine-3-carboxamide] was tested, and the Ki was 24 nM.
`CC(=O)c1cnc2c(C(=O)Nc3cc4c(cc3N3CCOCC3)O[C@@](C)(CO)C4)cnn2c1` [Example 85, (R)-6-Acetyl-N-(2-(hydroxymethyl)-2-methyl-6-morpholino-2,3-dihydrobenzofuran-5-yl)pyrazolo[1,5-a]pyrimidine-3-carboxamide] was tested, and the Ki was 17 nM.
With `CC(=O)c1cnc2c(C(=O)Nc3cc4c(cc3N3CCOCC3)O[C@](C)(CO)C4)cnn2c1` [Example 86, (S)-6-Acetyl-N-(2-(hydroxymethyl)-2-methyl-6-morpholino-2,3-dihydrobenzofuran-5-yl)pyrazolo[1,5-a]pyrimidine-3-carboxamide] the Ki was 49 nM.
`C[C@]1(CO)Cc2cc(NC(=O)c3cnn4cccnc34)c(N3CCN(CCO)CC3)cc2O1` [Example 87, N-[(2R)-6-[4-(2-Hydroxyethyl)piperazin-1-yl]-2-(hydroxymethyl)-2-methyl-3H-benzofuran-5-yl]pyrazolo[1,5-a]pyrimidine-3-carboxamide] gave a Ki of 19 nM.
In the case of `C[C@@]1(CO)Cc2cc(NC(=O)c3cnn4cccnc34)c(N3CCN(CCO)CC3)cc2O1` [Example 88, N-[(2S)-6-[4-(2-Hydroxyethyl)piperazin-1-yl]-2-(hydroxymethyl)-2-methyl-3H-benzofuran-5-yl]pyrazolo[1,5-a]pyrimidine-3-carboxamide], the Ki is reported as 7.6 nM.
`CC1(C)Cc2cc(NC(=O)c3cnn4cccnc34)c(C3CCN(CC(F)F)CC3)cc2O1` [Example 89, N-[6-[1-(2,2-Difluoroethyl)-4-piperidyl]-2,2-dimethyl-3H-benzofuran-5-yl]pyrazolo[1,5-a]pyrimidine-3-carboxamide] showed a Ki of 26 nM.
For `CC1(C)Cc2cc(NC(=O)c3cnn4cccnc34)c(C3CCN(CC(F)(F)F)CC3)cc2O1` [Example 90, N-[2,2-Dimethyl-6-[1-(2,2,2-trifluoroethyl)-4-piperidyl]-3H-benzofuran-5-yl]pyrazolo[1,5-a]pyrimidine-3-carboxamide], the Ki was 43 nM.
`CC1(C)Cc2cc(NC(=O)c3cnn4cc(C(F)F)cnc34)c(N3CCOCC3)cc2O1` [Example 91, 6-(Difluoromethyl)-N-(2,2-dimethyl-6-morpholino-3H-benzofuran-5-yl)pyrazolo[1,5-a]pyrimidine-3-carboxamide] showed a Ki of 39 nM.
With `CC1(C)Cc2cc(NC(=O)c3cnn4cccnc34)c(N3CC[C@](C)(CO)C3)cc2O1` [Example 94, (S)—N-(6-(3-(hydroxymethyl)-3-methylpyrrolidin-1-yl)-2,2-dimethyl-2,3-dihydrobenzofuran-5-yl)pyrazolo[1,5-a]pyrimidine-3-carboxamide] the Ki was 29 nM.
With `CC1(C)Cc2cc(NC(=O)c3cnn4cccnc34)c(N3CC[C@@](C)(CO)C3)cc2O1` [Example 95, (R)—N-(6-(3-(hydroxymethyl)-3-methylpyrrolidin-1-yl)-2,2-dimethyl-2,3-dihydrobenzofuran-5-yl)pyrazolo[1,5-a]pyrimidine-3-carboxamide] the Ki was 25 nM.
`CC[C@@]1(C)Cc2cc(NC(=O)c3cnn4cccnc34)c(N3CCOCC3)cc2O1` [Example 96, (S)—N-(2-ethyl-2-methyl-6-morpholino-2,3-dihydrobenzofuran-5-yl)pyrazolo[1,5-a]pyrimidine-3-carboxamide] showed a Ki of 14 nM.
In the case of `C[C@]1(CO)Cc2cc(NC(=O)c3cnn4cccnc34)c(N3CCN(CC(F)F)CC3)cc2O1` [Example 98, N-[(2R)-6-[4-(2,2-Difluoroethyl)piperazin-1-yl]-2-(hydroxymethyl)-2-methyl-3H-benzofuran-5-yl]pyrazolo[1,5-a]pyrimidine-3-carboxamide], the Ki is reported as 2.8 nM.
In the case of `C[C@@]1(CO)Cc2cc(NC(=O)c3cnn4cccnc34)c(N3CCN(CC(F)F)CC3)cc2O1` [Example 99, N-[(2S)-6-[4-(2,2-difluoroethyl)piperazin-1-yl]-2-(hydroxymethyl)-2-methyl-3H-benzofuran-5-yl]pyrazolo[1,5-a]pyrimidine-3-carboxamide], the Ki is reported as 3.3 nM.
`CC1(C)Cc2cc(NC(=O)c3cnn4cccnc34)c(N3CCc4cncn4CC3)cc2O1` [Example 101, N-[2,2-dimethyl-6-(5,6,8,9-tetrahydroimidazo[1,5-d][1,4]diazepin-7-yl)-3H-benzofuran-5-yl]pyrazolo[1,5-a]pyrimidine-3-carboxamide] gave a Ki of 32 nM.
With `CC1(C)Cc2cc(NC(=O)c3cnn4cccnc34)c(-n3cnc(CO)c3)cc2O1` [Example 102, N-[6-[4-(hydroxymethyl)imidazo 1-1-yl]-2,2-dimethyl-3H-benzofuran-5-yl]pyrazolo[1,5-a]pyrimidine-3-carboxamide] the Ki was 190 nM.
With `CC1(C)Cc2cc(NC(=O)c3cnn4cccnc34)c(-n3ccnc3)cc2O1` [Example 103, N-(6-imidazol-1-yl-2,2-dimethyl-3H-benzofuran-5-yl)pyrazolo[1,5-a]pyrimidine-3-carboxamide] the Ki was 88 nM.
`CC1CCCN1c1cc2c(cc1NC(=O)c1cnn3cccnc13)CC(C)(C)O2` (stereo not drawn) [Example 104, N-[2,2-dimethyl-6-(2-methylpyrrolidin-1-yl)-3H-benzofuran-5-yl]pyrazolo[1,5-a]pyrimidine-3-carboxamide] gave a Ki of 22 nM.
Work on `CC1(O)CN(c2cc3c(cc2NC(=O)c2cnn4cccnc24)CC(C)(C)O3)C1` [Example 105, N-[6-(3-hydroxy-3-methyl-azetidin-1-yl)-2,2-dimethyl-3H-benzofuran-5-yl]pyrazolo[1,5-a]pyrimidine-3-carboxamide] yielded a Ki of 720 nM.
`CC1(C)Cc2cc(NC(=O)c3cnn4cccnc34)c(N3CCC4(CCOC4)CC3)cc2O1` [Example 106, N-(2,2-dimethyl-6-(2-oxa-8-azaspiro[4.5]decan-8-yl)-2,3-dihydrobenzofuran-5-yl)pyrazolo[1,5-a]pyrimidine-3-carboxamide] was tested, and the Ki was 2.4 nM.
With `CC1(C)Cc2cc(NC(=O)c3cnn4cccnc34)c(N3CCC4(COC4)C3)cc2O1` [Example 107, N-(2,2-dimethyl-6-(2-oxa-6-azaspiro[3.4]octan-6-yl)-2,3-dihydrobenzofuran-5-yl)pyrazolo[1,5-a]pyrimidine-3-carboxamide] the Ki was 79 nM.
`CC1(C)Cc2cc(NC(=O)c3cnn4cccnc34)c(N3CCC4(CCOC4)C3)cc2O1` (stereo not drawn) [Example 108, N-(2,2-dimethyl-6-(2-oxa-7-azaspiro[4.4]nonan-7-yl)-2,3-dihydrobenzofuran-5-yl)pyrazolo[1,5-a]pyrimidine-3-carboxamide] gave a Ki of 79 nM.
`CC1(C)Cc2cc(NC(=O)c3cnn4cccnc34)c(N3CCC4(CCCC4O)CC3)cc2O1` (stereo not drawn) [Example 109, N-(6-(1-hydroxy-8-azaspiro[4.5]decan-8-yl)-2,2-dimethyl-2,3-dihydrobenzofuran-5-yl)pyrazolo[1,5-a]pyrimidine-3-carboxamide] gave a Ki of 4.2 nM.
With `CC1(C)Cc2cc(NC(=O)c3cnn4cccnc34)c(N3CCC4(CC3)CC(O)C4)cc2O1` [Example 110, N-(6-(2-hydroxy-7-azaspiro[3.5]nonan-7-yl)-2,2-dimethyl-2,3-dihydrobenzofuran-5-yl)pyrazolo[1,5-a]pyrimidine-3-carboxamide] the Ki was 2.5 nM.
